We go through 18 molecules from patent US5428036A (H. Lundbeck A/S, priority 1990, dated 1995).

In data set [1] the target is T1, serotonin S2 (5-HT2) receptors (Rattus norvegicus, UniProt P14842).
T1 construct: from tissue; host or cells: cerebral cortex membranes of male Wistar (Mol:Wist) rats
Put plainly: Inhibition of 3H-ketanserin binding to serotonin S2 (5-HT2) receptors in rat cortex in vitro. To be noted: for IC50: 0.5 nM 3H-ketanserin, rat cortex membranes, 37° C., 30 min. The method, then:
(§1) The prodrugs of the invention were tested in vitro for 5-HT2 receptor affinity (^3 H-ketanserin binding) and for 5-HT2 antagonistic effect in vivo (antagonism of quipazine induced head twiches).
Inhibition of ^3 H-ketanserin Binding to Serotonin S2 (5-HT2)Receptors in Rat Cortex in vitro
By this method the inhibition by drugs of the binding of ^3 H-Ketanserin (0,5 nM) to serotonin S2 (5-HT2) receptors in membranes from rat corex is determined in vitro. Method in Hyttel, Pharmacol. & Toxicol, 61, 126-129 1987.
Male Wistar (Mol:Wist) rats are sacrificed and cortical tissue is dissected and weighed. The tissue is homogenized (Ultra Turrax, 10 sec.) in 10 ml of ice-cold 50 mM tris buffer pH 7.7 (at 25° C.). The centrifuge glass ware used in this step has been rinsed by sonication for 10 min. in ethanol. The homogenate is centrifuged twice at 20,000 g for 10 min. at 4° C. with rehomogenization of the pellet in 10 ml ice-cold buffer. The final pellet is homogenized in 500 vol (w/v) ice-cold buffer. Incubation tubes kept on ice in triplicate receive 100 μl of drug solution in water (or water for total binding) and […] of tissue suspension (final tissue content corresponds to 4 mg original tissue). The binding experiment is initiated by addition of 100 μl of ^3 H-Ketanserin (final concentration 0.5 nM) and by placing the tubes in a 37° C. water bath. After incubation for 30 min. the samples are filtered under vacuum (0-50 mBar) through Whatman GF/F filters (25 mm). The tubes are rinsed with 5 ml ice-cold buffer which are then poured on the filters. Thereafter, the filters are washed with 2×5 ml of buffer. The filters are placed in counting vials and 4 ml of appropriate scintillation fluid (e.g. Picofluor™ 15) are added. After shaking for 1 h and storage 2 hrs in the dark the content of radioactivity is determined by liquid scintillation counting. Specific binding is obtained by subtracting the nonspecific binding in the presence of 1 μM mianserin. For determination of the inhibition of binding five concentrations of drugs covering 3 decades are used.
The IC50 value is determined as the concentration at which the binding is 50% of the total binding in control samples minus the nonspecific binding in the presence of 1 μM mianserin.
^3 H-Ketanserin=[ethylene-^3 H]-ketanserin hydrochloride from New England Nuclear, specific activity 60-80 Ci/mmol.

In another data set the target is T2, 5-HT2 (Rattus norvegicus, UniProt P14842).
T2 construct: Four rats, male Wistar (Mol:Wist) SPF rats, are used at each dose level; from tissue; host or cells: living male Wistar (Mol:Wist) SPF rats; receptor endogenous to the animal
T2 sequence (P14842 whole entry): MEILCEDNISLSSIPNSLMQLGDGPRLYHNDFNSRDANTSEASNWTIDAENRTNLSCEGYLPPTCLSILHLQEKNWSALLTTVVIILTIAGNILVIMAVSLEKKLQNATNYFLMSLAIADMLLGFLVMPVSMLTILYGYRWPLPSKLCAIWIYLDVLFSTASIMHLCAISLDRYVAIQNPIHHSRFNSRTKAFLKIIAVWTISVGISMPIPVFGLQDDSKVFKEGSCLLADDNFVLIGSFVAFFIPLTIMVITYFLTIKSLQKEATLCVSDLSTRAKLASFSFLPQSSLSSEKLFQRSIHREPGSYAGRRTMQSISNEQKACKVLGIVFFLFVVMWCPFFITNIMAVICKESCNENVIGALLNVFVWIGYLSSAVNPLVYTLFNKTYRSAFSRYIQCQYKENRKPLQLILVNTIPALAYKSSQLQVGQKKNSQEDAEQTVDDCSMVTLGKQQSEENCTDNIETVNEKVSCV
Put plainly: Quipazine inhibition (antagonism of quipazine induced head twitches in rats). It counts as in vivo. Conditions: for ED50: po, p.o. 24 hrs before quipazine (6.8 mg/kg, s.c.), head twitches, rat. The method, then:
as §1
Quipazine is a 5-HT2 agonist, which induces head twitches in rats. The test is a test for 5-HT2 -antagonistic effect measuring the ability to inhibit head twitches. The method and test results for some reference substances are published by Arnt et al. (Drug Dev. Res., 16, 59-70, 1989).
Test substance is given p.o. 24 hrs before quipazine administration (6.8 mg/kg, s.c., dimaleate). Four rats, male Wistar (Mol:Wist) SPF rats, are used at each dose level. A control group is included each test day. After quipazine administration the rats are individually placed in the observation cages and head twitches are counted in an observation period of 10 min. 30-40 min. after injection of quipazine.
Total number of head twitches in each group are calculated and the result for each dose is expressed as percent of the response in the control group. ED50 values are calculated by log-probit analysis. The test must be repeated if the average number of head twitches is lower than 9 in the control group.

Data set [2] can be described thus: Sertindole concentration in dog serum after i.m. depot dosing in Viscoleo (HPLC). It counts as in vivo, Beagle dogs. To be noted: i.m. depot formulation in dogs; FIG. 1. As for the experimental part:
The depot effects of the compounds of the invention were determined as described in the following example:
Seven Beagle dogs were used. One male and one female dog were used for each preparation exept for 1a where only one female dog was used. The compounds were dissolved in Viscoleo®. One ml Viscoleo® equivalent 1 kg dog. The dogs were dosed i.m. approx. 5 ml in each thigh.
Blood samples were drawn at 1,2, 4, 8, and 24 hours after dosing, and 2, 4, 7, 10, and 14 days after dosing.
The serum samples were analyzed by HPLC using a system consisting of a Spherisorb S5W column (25 cm×4.6 mm) and a Hewlett Packard HP 1090 chromatograph with a HP 1050 UV-absorbance detector with a measuring wavelength of 254 nm. Elution was performed with n-heptane/2-propanol/conc. ammonia/water in the ratio 100/18.4/0.5/0.2, v/v as eluent at ambient temperature with a pressure of approximately 70 bar and a flow rate of 1 ml/min.

Usually IC50 stands for the concentration needed to halve the response being measured. A high value points to weaker potency in that assay. Broadly, the ED50 is the midpoint of the dose-response relation.

T1 sequence (P14842 whole entry): as above

`CC(=O)N1CCN(CCN2CCC(c3cn(-c4ccc(F)cc4)c4ccc(Cl)cc34)CC2)C1=O` [Compound 1a]: in data set [1], the IC50 amounted to 1.2 nM. Further, it took a dose of 0.029 µmol/kg to reach the 50% effect level at 5-HT2 (ED50). The “decomposition to sertindole after injection of a depot formulation” value in data set [2] is listed as “decompose to sertindole after injection of a depot formulation”.

As to `CCCCCCCCCC(=O)N1CCN(CCN2CCC(c3cn(-c4ccc(F)cc4)c4ccc(Cl)cc34)CC2)C1=O` [Compound 1b, 5-chloro-3-[1-[2-(3-decanoyl-2-imidazolidinon-1-yl)ethyl]-4-piperidyl]-1-(4-fluorophenyl)-1H-indole], the IC50 in data set [1] worked out at 57 nM. At 5-HT2, it took a dose of 0.09 µmol/kg to reach the 50% effect level (ED50).

`CCCCCCCCCCCCCCCC(=O)N1CCN(CCN2CCC(c3cn(-c4ccc(F)cc4)c4ccc(Cl)cc34)CC2)C1=O` [Compound 1e] came in with a 50% inhibitory concentration (IC50) in data set [1] of 47 nM. For the same molecule, it took a dose of 0.77 µmol/kg to reach the 50% effect level at 5-HT2 (ED50).

`O=C(c1ccccc1)N1CCN(CCN2CCC(c3cn(-c4ccc(F)cc4)c4ccc(Cl)cc34)CC2)C1=O` [Compound 1f, 3-[1-[2-(3-benzoyl-2-imidazolidinon-1-yl)ethyl]-4-piperidyl]-5-chloro-1-(4-fluorophenyl)-1H-indole]: the IC50 in data set [1] amounted to 9.3 nM. This molecule also gave an ED50 on 5-HT2 of 0.05 µmol/kg.

The molecule `CCCCCCCC/C=C\CCCCCCCC(=O)N1CCN(CCN2CCC(c3cn(-c4ccc(F)cc4)c4ccc(Cl)cc34)CC2)C1=O` [Compound 2a] showed an IC50 in data set [1] of 260 nM. On 5-HT2, this molecule came in with an ED50 of 0.55 µmol/kg.

On to `CN(C)C(=O)N1CCN(CCN2CCC(c3cn(-c4ccc(F)cc4)c4ccc(Cl)cc34)CC2)C1=O` [Compound 4a, 5-Chloro-3-[1-[2-(3-dimethylcarbamyl-2-imidazolidinon-1-yl)ethyl]-4-piperidyl]-1-(4-fluorophenyl)-^1 H-indole], for which the IC50 in data set [1] was determined as 0.9 nM. For the same molecule, at 5-HT2, it took a dose of 0.24 µmol/kg to reach the 50% effect level (ED50).

Regarding `CCCCCCCCCCOC(=O)N1CCN(CCN2CCC(c3cn(-c4ccc(F)cc4)c4ccc(Cl)cc34)CC2)C1=O` [Compound 4d, 5-chloro-3-[1-[2-[3-(1-decyl)oxycarbonyl-2-imidazolidinon-1-yl]ethyl]-4-piperidyl]-1-(4-fluorophenyl)-1H-indole], the IC50 in data set [1] was 13 nM. Also, the ED50 at 5-HT2 worked out at 1.1 µmol/kg.

The molecule `O=C1N(CO)CCN1CCN1CCC(c2cn(-c3ccc(F)cc3)c3ccc(Cl)cc23)CC1` [Compound 5a, 5-Chloro-1-(4-fluorophenyl)-3-[1-[2-(3-hydroxymethyl-2-imidazolidinon-1-yl)ethyl]-4-piperidyl]-1H-indole] registered an IC50 in data set [1] of 0.47 nM. The ED50 at 5-HT2 came to 0.037 µmol/kg.

Regarding `O=C1N(CCN2CCC(c3cn(-c4ccc(F)cc4)c4ccc(Cl)cc34)CC2)CCN1CN1CCOCC1` [Compound 6a, 5-Chloro-1-(4-fluorophenyl)-3-[1-[2-[3-(1-morpholinomethyl)-2-imidazolidinon-1-yl]ethyl]-4-piperidyl]-1H-indole], in data set [1], the IC50 is 0.97 nM. Moreover, on 5-HT2, it took a dose of 0.079 µmol/kg to reach the 50% effect level (ED50).

As for `CN(C)CN1CCN(CCN2CCC(c3cn(-c4ccc(F)cc4)c4ccc(Cl)cc34)CC2)C1=O` [Compound 6b, 5-chloro-3-[1-[2-(3-dimethylaminomethyl-2-imidazolidinon-1-yl)ethyl]-4-piperidyl]-1-(4-fluorophenyl)-1H-indole], the IC50 in data set [1] was 0.6 nM.

In data set [1], `CCOCN1CCN(CCN2CCC(c3cn(-c4ccc(F)cc4)c4ccc(Cl)cc34)CC2)C1=O` [Compound 7a, 5-Chloro-3-[1-[2-(3-ethoxymethyl-2-imidazolidinon-1-yl)ethyl]-4-piperidyl]-1-(4-fluorophenyl)-1H-indole] returned an IC50 of 1.2 nM. The molecule also registered a median effective dose (ED50) on 5-HT2 of 0.081 µmol/kg.

On to `CCCCCCCCCCOCN1CCN(CCN2CCC(c3cn(-c4ccc(F)cc4)c4ccc(Cl)cc34)CC2)C1=O` [Compound 7d], for which, in data set [1], the IC50 was 49 nM. This molecule also yielded an ED50 on 5-HT2 of 0.15 µmol/kg.

For the molecule `CC(C)c1ccc(C(=O)N2CCN(CCN3CCC(c4cn(-c5ccc(F)cc5)c5ccc(Cl)cc45)CC3)C2=O)cc1` [Compound 8a, 5-Chloro-1-(4-fluorophenyl)-3-[1-[2-[3-(4-isopropylbenzoyl)-2-imidazolidinon-1-yl]ethyl]-4-piperidyl]-1H-indole], in data set [1], the concentration for half-maximal inhibition (IC50) is 20 nM. In addition, it took a dose of 0.12 µmol/kg to reach the 50% effect level on 5-HT2 (ED50).

Consider `CC(=O)Oc1ccccc1C(=O)N1CCN(CCN2CCC(c3cn(-c4ccc(F)cc4)c4ccc(Cl)cc34)CC2)C1=O` [Compound 8c], for which the IC50 in data set [1] came to 24 nM. Besides, the ED50 at 5-HT2 was 0.057 µmol/kg.

The molecule `CCCC(=O)N1CCN(CCN2CCC(c3cn(-c4ccc(F)cc4)c4ccc(Cl)cc34)CC2)C1=O` [Compound 8d, 3-[1-[2-(3-butanoyl-2-imidazolidinon-1-yl)ethyl]-4-piperidyl]-5-chloro-1(4-fluorophenyl)-1H-indole] yielded an IC50 in data set [1] of 5.6 nM. In addition, the 50% effect level at 5-HT2 (ED50) was put at a dose of 0.014 µmol/kg.

Consider `CCCCCC(=O)N1CCN(CCN2CCC(c3cn(-c4ccc(F)cc4)c4ccc(Cl)cc34)CC2)C1=O` [Compound 8e, 5-chloro-1-(4-fluorophenyl)-3-[1-[2-(3-hexanoyl-2-imidazolidinon-1-yl)ethyl]-4-piperidyl]-1H-indole], for which the IC50 in data set [1] came out at 38 nM. This molecule came in with an ED50 on 5-HT2 of 0.039 µmol/kg.

In the case of `CCCCCCCC(=O)N1CCN(CCN2CCC(c3cn(-c4ccc(F)cc4)c4ccc(Cl)cc34)CC2)C1=O` [Compound 8f, 5-chloro-1-(4-fluorophenyl)-3-[1-[2-(3-octanoyl-2-imidazolidinon-1-yl)ethyl]-4-piperidyl]-1H-indole], the IC50 in data set [1] was determined as 140 nM. Further, it took a dose of 0.092 µmol/kg to reach the 50% effect level at 5-HT2 (ED50).

For `O=C1NCCN1CCN1CCC(c2cn(-c3ccc(F)cc3)c3ccc(Cl)cc23)CC1` [sertindole, 5-chloro-1-(4-fluorophenyl)-3-[1-[2-(2-imidazolidinon-1-yl)ethyl]-4-piperidyl]-1H-indole, reference compound], the “Serotonin S2 (5-HT2) antagonism in vitro” value in data set [1] (in vitro, statement in words) is on record as “very potent”. The “Serotonin S2 (5-HT2) antagonism in vivo” value on 5-HT2 (in vivo, statement in words) is on record as “very potent”.
